This test concerns the target T1, endogenous PIP4K2C C-terminally tagged with HiBiT peptide in MOLT-4 cells (Homo sapiens, UniProt Q8TBX8).
T1 construct: to C-terminally tag endogenous PIP4K2C with HiBiT peptide; host or cells: MOLT-4 (CRISPR-Cas9 knock-in clone)
T1 sequence (Q8TBX8 1-421): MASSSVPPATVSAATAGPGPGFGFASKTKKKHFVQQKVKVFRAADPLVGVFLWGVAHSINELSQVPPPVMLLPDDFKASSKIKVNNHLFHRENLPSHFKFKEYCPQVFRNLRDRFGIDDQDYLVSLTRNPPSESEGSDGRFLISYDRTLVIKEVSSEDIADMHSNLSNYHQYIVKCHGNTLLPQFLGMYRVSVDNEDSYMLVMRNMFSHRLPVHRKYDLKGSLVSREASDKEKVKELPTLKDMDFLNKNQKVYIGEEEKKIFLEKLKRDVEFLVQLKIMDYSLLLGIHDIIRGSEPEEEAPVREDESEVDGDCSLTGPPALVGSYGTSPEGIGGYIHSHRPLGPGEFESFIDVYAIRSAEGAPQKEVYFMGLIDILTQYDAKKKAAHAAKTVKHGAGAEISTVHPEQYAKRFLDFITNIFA
Briefly: HiBiT PIP4K2C degradation assay in MOLT-4 cells. The conditions noted are these: 24 hours, 10-point dose response, top concentration 10 micromolar, read-out: HiBIT-degradation MOLT4 PIP4k2C 24 hours DC50. It counts as cell-based. As for the experimental part:
Following clonal selection, genotype was confirmed by Sanger sequencing. […] Nano-Glo® HiBiT Lytic Assay System was purchased from Promega (Madison, WI, Catalog number N3030). Cell culture flasks and 384-well microplates were purchased from Corning (Glendale, AZ).
To study PIP4K2C degradation, 384-well plates were plated with a 10-point dose response curve, 3-fold dilution, in duplicate with a top starting concentration of 10 micromolar. Subsequently 22,500 cells were added to each well and incubated at 37C in 5% CO2 for 24 hours. At the end of the incubation time, cells were treated with the Nano-Glo® HiBiT Lytic Detection System following the manufacturer's instructions. Luminescence was measured with a PHERAstar FSX plate reader (BMG Labtech, Cary, NC). The Levenberg-Marquardt algorithm was used to fit a Hill equation to dose-response data to calculate DC50 values (see Table 6).
Background: With HiBiT, luminescence reflects the tagged protein that the partner subunit can reach.

As to `O=C1CCC(Nc2ccc(C3CCN(CC(=O)N4CCC5(CC4)CCN(c4cncc(Nc6ncc(Cl)c(N7CCC[C@H](O)C7)n6)c4)C5=O)CC3)cc2)C(=O)N1` (stereo partly drawn) [Compound 169, 3-((4-(1-(2-(2-(5-((5-chloro-4-((S)-3-hydroxypiperidin-1-yl)pyrimidin-2-yl)amino)pyridin-3-yl)-1-oxo-2,8-diazaspiro[4.5]decan-8-yl)-2-oxoethyl)piperidin-4-yl)phenyl)amino)piperidine-2,6-dione], the DC50 (as a rule, the concentration giving 50% degradation) is less than 500 nM.
Regarding `Cn1c(=O)n(C2CCC(=O)NC2=O)c2cc(OCC(=O)NCCCCCCCCCC(=O)Nc3cncc(Nc4ncc(Cl)c(-c5cccc(-c6ccccc6)c5)n4)c3)ccc21` (centres unmarked) [Compound 51, N-(5-((4-([1,1′-biphenyl]-3-yl)-5-chloropyrimidin-2-yl)amino)pyridin-3-yl)-10-(2-((3-(2,6-dioxopiperidin-3-yl)-1-methyl-2-oxo-2,3-dihydro-1H-benzo[d]imidazol-5-yl)oxy)acetamido)decanamide], the DC50 is 1000 to 5000 nM.
With `O=C1CCC(N2C(=O)c3cccc(OCCCCCCCC(=O)N4CCC5(CC4)CCN(c4cncc(Nc6ncc(Cl)c(-c7cccc(-c8ccccc8)c7)n6)c4)C5=O)c3C2=O)C(=O)N1` (centres unmarked) [Compound 79, 4-((8-(2-(5-((4-([1,1′-biphenyl]-3-yl)-5-chloropyrimidin-2-yl)amino)pyridin-3-yl)-1-oxo-2,8-diazaspiro[4.5]decan-8-yl)-8-oxooctyl)oxy)-2-(2,6-dioxopiperidin-3-yl)isoindoline-1,3-dione] the figure was less than 500 nM; with `O=C1CCC(Nc2ccc(N3CCC(CC(=O)N4CCC5(CC4)CCN(c4cncc(Nc6ncc(Cl)c(N7CCC[C@H](O)C7)n6)c4)C5=O)CC3)cc2)C(=O)N1` (stereo partly drawn) [Compound 175, 3-((4-(4-(2-(2-(5-((5-chloro-4-((S)-3-hydroxypiperidin-1-yl)pyrimidin-2-yl)amino)pyridin-3-yl)-1-oxo-2,8-diazaspiro[4.5]decan-8-yl)-2-oxoethyl)piperidin-1-yl)phenyl)amino)piperidine-2,6-dione], less than 500 nM.
Under `Cn1c(=O)n(C2CCC(=O)NC2=O)c2ccc(C3CCN(C(=O)CN4CCC5(CC4)CCN(c4cncc(Nc6ncc(Cl)c(-c7cccc(C8CC8)c7)n6)c4)C5=O)CC3)cc21` (centres unmarked) [Compound 208, 3-[5-[1-[2-[2-[5-[[5-chloro-4-(3-cyclopropylphenyl)pyrimidin-2-yl]amino]-3-pyridyl]-1-oxo-2,8-diazaspiro[4.5]decan-8-yl]acetyl]-4-piperidyl]-3-methyl-2-oxo-benzimidazol-1-yl]piperidine-2,6-dione] stands less than 500 nM; under `O=C1CCC(N2Cc3cc(OCCCCCCCC(=O)N4CCC5(CC4)CCN(c4cncc(Nc6ncc(Cl)c(-c7cccc(-c8ccccc8)c7)n6)c4)C5=O)ccc3C2=O)C(=O)N1` (centres unmarked) [Compound 63, 3-(5-((8-(2-(5-((4-([1,1′-biphenyl]-3-yl)-5-chloropyrimidin-2-yl)amino)pyridin-3-yl)-1-oxo-2,8-diazaspiro[4.5]decan-8-yl)-8-oxooctyl)oxy)-1-oxoisoindolin-2-yl)piperidine-2,6-dione], less than 500 nM.
With `O=C1CCC(Nc2ccc(C3CCN(CC(=O)N4CCC5(CC4)CCN(c4cncc(Nc6ncc(Cl)c(N7CCC[C@@H](O)C7)n6)c4)C5=O)CC3)cc2)C(=O)N1` (stereo partly drawn) [Compound 170, 3-((4-(1-(2-(2-(5-((5-chloro-4-((R)-3-hydroxypiperidin-1-yl)pyrimidin-2-yl)amino)pyridin-3-yl)-1-oxo-2,8-diazaspiro[4.5]decan-8-yl)-2-oxoethyl)piperidin-4-yl)phenyl)amino)piperidine-2,6-dione] the figure was less than 500 nM; with `O=C1CCC(N2C(=O)c3cccc(OCCCCCCC(=O)N4CCC5(CC4)CCN(c4cncc(Nc6ncc(Cl)c(-c7cccc(-c8ccccc8)c7)n6)c4)C5=O)c3C2=O)C(=O)N1` (centres unmarked) [Compound 80, 4-((7-(2-(5-((4-([1,1′-biphenyl]-3-yl)-5-chloropyrimidin-2-yl)amino)pyridin-3-yl)-1-oxo-2,8-diazaspiro[4.5]decan-8-yl)-7-oxoheptyl)oxy)-2-(2,6-dioxopiperidin-3-yl)isoindoline-1,3-dione], less than 500 nM; with `O=C1CCC(N2C(=O)c3cccc(OCCCN4CCN(CCCCC(=O)Nc5cncc(Nc6ncc(Cl)c(-c7cccc(-c8ccccc8)c7)n6)c5)CC4)c3C2=O)C(=O)N1` (centres unmarked) [Compound 65, N-(5-((4-([1,1′-biphenyl]-3-yl)-5-chloropyrimidin-2-yl)amino)pyridin-3-yl)-5-(4-(3-((2-(2,6-dioxopiperidin-3-yl)-1,3-dioxoisoindolin-4-yl)oxy)propyl)piperazin-1-yl)pentanamide], less than 500 nM.
As for `O=C1CCC(Nc2ccc(N3CCC(CC(=O)N4CCC5(CC4)CCN(c4cncc(Nc6ncc(Cl)c(N7CCC[C@@H](O)C7)n6)c4)C5=O)CC3)cc2)C(=O)N1` (stereo partly drawn) [Compound 176, 3-((4-(4-(2-(2-(5-((5-chloro-4-((R)-3-hydroxypiperidin-1-yl)pyrimidin-2-yl)amino)pyridin-3-yl)-1-oxo-2,8-diazaspiro[4.5]decan-8-yl)-2-oxoethyl)piperidin-1-yl)phenyl)amino)piperidine-2,6-dione], the DC50 is less than 500 nM.
With `CN1CCC(n2cc(-c3nc(Nc4cncc(N5CCC6(CCN(C(=O)CN7CCC(c8ccc(NC9CCC(=O)NC9=O)cc8)CC7)CC6)C5=O)c4)ncc3Cl)cn2)CC1` (centres unmarked) [Compound 194, 3-((4-(1-(2-(2-(5-((5-chloro-4-(1-(1-methylpiperidin-4-yl)-1H-pyrazol-4-yl)pyrimidin-2-yl)amino)pyridin-3-yl)-1-oxo-2,8-diazaspiro[4.5]decan-8-yl)-2-oxoethyl)piperidin-4-yl)phenyl)amino)piperidine-2,6-dione] the figure was less than 500 nM; with `O=C(COc1cccc2c1CN(C1CCC(=O)NC1=O)C2=O)NCCCCCCCCCC(=O)Nc1cncc(Nc2ncc(Cl)c(-c3cccc(-c4ccccc4)c3)n2)c1` (centres unmarked) [Compound 66, N-(5-((4-([1,1′-biphenyl]-3-yl)-5-chloropyrimidin-2-yl)amino)pyridin-3-yl)-10-(2-((2-(2,6-dioxopiperidin-3-yl)-1-oxoisoindolin-4-yl)oxy)acetamido)decanamide], less than 500 nM.
With `O=C1CCC(Nc2ccc(C3CCN(CC(=O)N4CCC5(CC4)CCN(c4cncc(Nc6ncc(Cl)c(-c7cccc(C8CCCCC8)c7)n6)c4)C5=O)CC3)cc2)C(=O)N1` (centres unmarked) [Compound 190, 3-((4-(1-(2-(2-(5-((5-chloro-4-(3-cyclohexylphenyl)pyrimidin-2-yl)amino)pyridin-3-yl)-1-oxo-2,8-diazaspiro[4.5]decan-8-yl)-2-oxoethyl)piperidin-4-yl)phenyl)amino)piperidine-2,6-dione] the figure was less than 500 nM.
With `O=C1CCC(N2Cc3cc(NCCCCCC(=O)N4CCC5(CC4)CCN(c4cncc(Nc6ncc(Cl)c(-c7cccc(-c8ccccc8)c7)n6)c4)C5=O)ccc3C2=O)C(=O)N1` (centres unmarked) [Compound 82, 3-(5-((6-(2-(5-((4-([1,1′-biphenyl]-3-yl)-5-chloropyrimidin-2-yl)amino)pyridin-3-yl)-1-oxo-2,8-diazaspiro[4.5]decan-8-yl)-6-oxohexyl)amino)-1-oxoisoindolin-2-yl)piperidine-2,6-dione] the figure was less than 500 nM; with `Cn1c(=O)n(C2CCC(=O)NC2=O)c2ccc(C3CCN(C(=O)CN4CCC(C(=O)Nc5cncc(Nc6ncc(Cl)c(-c7cccc(C8CC8)c7)n6)c5)CC4)CC3)cc21` (centres unmarked) [Compound 204, N-(5-((5-chloro-4-(3-cyclopropylphenyl)pyrimidin-2-yl)amino)pyridin-3-yl)-1-(2-(4-(1-(2,6-dioxopiperidin-3-yl)-3-methyl-2-oxo-2,3-dihydro-1H-benzo[d]imidazol-5-yl)piperidin-1-yl)-2-oxoethyl)piperidine-4-carboxamide], less than 500 nM.
In the case of `O=C1CCC(Nc2ccc(C3CCN(CC(=O)N4CCC5(CC4)CCN(c4cncc(Nc6ncc(Cl)c(-c7cccc(N8CCC8)c7)n6)c4)C5=O)CC3)cc2)C(=O)N1` (centres unmarked) [Compound 188, 3-((4-(1-(2-(2-(5-((4-(3-(azetidin-1-yl)phenyl)-5-chloropyrimidin-2-yl)amino)pyridin-3-yl)-1-oxo-2,8-diazaspiro[4.5]decan-8-yl)-2-oxoethyl)piperidin-4-yl)phenyl)amino)piperidine-2,6-dione], the DC50 is less than 500 nM.
Regarding `O=C1CCC(Nc2ccc(N3CCC(CCN4CCC5(CC4)CCN(c4cncc(Nc6ncc(Cl)c(N7CCCCC7)n6)c4)C5=O)CC3)cc2)C(=O)N1` (centres unmarked) [Compound 173, 3-((4-(4-(2-(2-(5-((5-chloro-4-(piperidin-1-yl)pyrimidin-2-yl)amino)pyridin-3-yl)-1-oxo-2,8-diazaspiro[4.5]decan-8-yl)ethyl)piperidin-1-yl)phenyl)amino)piperidine-2,6-dione], the 50% degradation concentration (DC50) is less than 500 nM.

Values taken from US20260184691A1, “INHIBITORS AND DEGRADERS OF PIP4K PROTEIN” (Larkspur Biosciences, Inc., priority 2022, published 2026).
